Results on 24 molecules are retold here after ChEMBL document CHEMBL1201862, “PubChem BioAssay data set” (2004).

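Tested at 5 concentrations; 48 h exposure; 96-well plates; endpoints linearly interpolated, else capped at highest concentration. GI50: concentration for 50% inhibition of growth.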 Activity calls are given as the source filed them. Rule as the data show it: active = GI50 up to about 1.1 µM and inactive = higher.

Common to all, as to experiment: NCI tumour cell line growth inhibition, 48 h
For assay [1], the system named is DMS-114.
The subject of assay [2] is DMS-273.
The subject of assay [3] is HOP-18.
Assay [4] deals with KM-20L2.
The test system of assay [5] is LXFL 529.
The test system of assay [6] is M19-MEL.
Assay [7] relates to RXF 631.
For assay [8], the system named is SNB-78.
Assay [9] deals with XF498.

Take `O=C1NC(=O)/C(=N\c2cccc3c(=O)[nH][nH]c(=O)c23)C(c2nc3ccccc3s2)C1=O` (stereo not drawn): the GI50 in assay [1], in [2], in assay [3], in [4], in assay [5] and in [6] was > 100 µM (inactive) each time. The GI50 is > 100 µM (inactive) in assay [7], > 100 µM (inactive) in assay [8] and 32.1 µM (inactive) in [9].

In the case of `OCc1ccc(-c2ccc(-c3ccc(CO)s3)o2)s1`, the GI50 in assay [1] was 13.4 µM (inactive); in assay [2], 1.13 µM (inactive); in assay [3] it was 0.341 µM (active); in [4] it was 0.0405 µM (active); in assay [5], 0.0158 µM (active); in [6], 41.7 µM (inactive). Also, in [9], the GI50 was 0.0562 µM (active).

Turning to `CS(=O)(=O)NNS(=O)(=O)c1ccc(F)cc1`, the GI50 in [1], in assay [2], in assay [4], in assay [5], in [6] and in [7] was > 100 µM (inactive) in each case.

With `O=C1C=CC(=O)c2c(O)ccc(O)c21` [NAPHTHAZALIN], the GI50 in assay [1] was 1.8 µM (inactive); in [2] it was 3.17 µM (inactive); in [3], 1.16 µM (inactive); in assay [4], 1.84 µM (inactive); in [5], 0.535 µM (active); in assay [6], 0.491 µM (active). The figures for the GI50 in assay [8] and in [9] were 2.25 µM (inactive) and 1.58 µM (inactive), respectively.

On to `Cc1c(N)nc([C@H](CC(N)=O)NC[C@H](N)C(N)=O)nc1C(=O)N[C@H](C(=O)N[C@H](C)[C@@H](O)[C@H](C)C(=O)N[C@H](C(=O)NCCc1nc(-c2nc(C(=O)NCCC[S+](C)C)cs2)cs1)[C@@H](C)O)C(OC1OC(CO)C(O)C(O)C1OC1OC(CO)C(O)C(OC(N)=O)C1O)c1c[nH]cn1` (stereo partly drawn), for which the GI50 was 0.438 µM (active) in [1]; 0.12 µM (active) in assay [2]; 4.27 µM (inactive) in assay [3]; 19.9 µM (inactive) in [4]; 16.9 µM (inactive) in assay [5]; 8.28 µM (inactive) in assay [6]. The figures for the GI50 in assay [7], in [8] and in assay [9] were 0.608 µM (active), 20.8 µM (inactive) and 0.776 µM (active), respectively.

As for `COC(=N)/C(=C1\OC(=N)C(c2ccc(Cl)cc2)=C1O)c1ccc(Cl)cc1`, the GI50 in assay [1] is > 100 µM (inactive); in assay [2], > 100 µM (inactive); in assay [3], > 100 µM (inactive); in assay [4], > 100 µM (inactive); in assay [5] it was 74.3 µM (inactive); in assay [6] it was > 100 µM (inactive). In addition, the GI50 in [8] and in assay [9] was > 100 µM (inactive) throughout.

In the case of `CC1=C(C(=O)CC(=O)C(=O)Nc2cccc(C)c2C)Sc2ccccc2N1`, the GI50 in assay [1], in [3], in [5], in [6] and in [8] was > 100 µM (inactive) throughout.

As for `N=C(N)NS(=O)(=O)c1ccc(NC(=O)c2cccc3c(N)c4ccccc4nc23)cc1`, the GI50 was 61.2 µM (inactive) in [1]; > 100 µM (inactive) in assay [2]; 68.2 µM (inactive) in assay [4]; 60.1 µM (inactive) in [5]; > 100 µM (inactive) in assay [6]; > 100 µM (inactive) in assay [7]. The GI50 in assay [8] and in assay [9] was > 100 µM (inactive) each time.

`O=C(CC(=O)N1N=C(n2ccc3ccccc32)CC1c1ccccc1)Nc1cccc(Cl)c1` (stereo not drawn): the GI50 in assay [2], in assay [3], in assay [4], in assay [5], in assay [6] and in assay [7] was > 100 µM (inactive) throughout. For the same molecule, in [8], the GI50 is > 100 µM (inactive).

Take `COC(=O)C1[C@H](c2cc(OC)c(OC)c(OC)c2)OC(=O)C1(C(=O)OC)C(=O)c1ccc2c(c1)OCO2` (stereo partly drawn): the GI50 in [1], in assay [2], in assay [4], in assay [5], in [6] and in [8] was > 100 µM (inactive) throughout. The GI50 in assay [9] is > 100 µM (inactive).

`COc1cc2c[n+](C)c3c4cc5c(cc4ccc3c2cc1OC)OCO5` [NITIDINE CHLORIDE]: the GI50 was 1.24 µM (inactive) in [1]; 0.745 µM (active) in assay [2]; 19.5 µM (inactive) in assay [3]; 0.608 µM (active) in assay [4]; 1.4 µM (inactive) in assay [5]; 1.27 µM (inactive) in assay [6]. Further, the GI50 in assay [7] was 19.8 µM (inactive); in assay [8] it was 3.37 µM (inactive); in [9], 2.66 µM (inactive).

As for `CC1(C)OCN(c2ccc(Cl)cc2)Cn2c1nc1ccccc12`, the GI50 in assay [1] is 21.2 µM (inactive); in [2], 1.68 µM (inactive); in assay [3], > 100 µM (inactive); in [4], 1.82 µM (inactive); in assay [5], 1.31 µM (inactive); in assay [6], 71 µM (inactive). In addition, the values for the GI50 in assay [8] and in [9] were > 100 µM (inactive) and 82.4 µM (inactive), respectively.

As to `O=C(NN1C(=O)C(Cl)C1c1cccc(Cl)c1)c1ccccc1O` (stereo not drawn), the GI50 in assay [2] was > 100 µM (inactive); in assay [3], 0.167 µM (active); in [5], > 100 µM (inactive); in assay [6], > 100 µM (inactive); in [8], > 100 µM (inactive); in assay [9], 15.3 µM (inactive).

With `COc1ccccc1N1C(=O)C2c3[nH]c4ccccc4c3C3CCC(C(C)(C)C)CC3C2C1=O` (stereo not drawn), the GI50 in [1], in assay [2], in assay [3], in [4], in assay [5] and in [6] was > 100 µM (inactive) in each case. The GI50 in assay [8] and in assay [9] was > 100 µM (inactive) in each case.

With `COc1ccc(C2NC(c3ccc(OC)cc3)C(C)C(=O)C2C)cc1` (stereo not drawn), the GI50 in assay [1] was 64.4 µM (inactive); in assay [2], > 100 µM (inactive); in [3] it was > 100 µM (inactive); in [4], > 100 µM (inactive); in assay [5] it was > 100 µM (inactive); in assay [6], > 100 µM (inactive). Also, the GI50 in [7] and in assay [8] was > 100 µM (inactive) throughout.

With `Cc1cccc(N2C(=O)C(Cl)=C(Cl)C2=O)c1`, the GI50 in assay [1] is > 67.5 µM (inactive); in assay [2], > 100 µM (inactive); in [3] it was > 73.6 µM (inactive); in assay [4] it was > 100 µM (inactive); in assay [5] it was > 41.6 µM (inactive); in assay [6], > 91.2 µM (inactive). The results for the GI50 in assay [8] and in assay [9] were > 100 µM (inactive) and 0.661 µM (active), respectively.

Take `CCCCCCCCCCCCCS(=O)(=O)NCC(N)=O`: the GI50 in assay [1], in assay [3], in assay [4], in [5], in assay [6] and in [8] was > 100 µM (inactive) each time. The GI50 in assay [9] was 69.8 µM (inactive).

For the molecule `C=C(C)C1CC=C(C)CC1` (stereo not drawn), the GI50 in [1] is 891 µM (inactive); in assay [2], 993 µM (inactive); in assay [3] it was > 100 µM (inactive); in assay [4], 904 µM (inactive); in assay [5], 855 µM (inactive); in [6], 879 µM (inactive). The GI50 in [7] is 908 µM (inactive); in [8] it was 986 µM (inactive); in assay [9], 993 µM (inactive).

On to `O=C1CC(C2(O)C(=O)Nc3ccc([N+](=O)[O-])cc32)c2ccccc21` (stereo not drawn), for which the GI50 in [1] is 9.48 µM (inactive); in assay [2] it was 20.9 µM (inactive); in assay [3], 28.1 µM (inactive); in assay [5], 16.3 µM (inactive); in [6], 29.2 µM (inactive); in assay [7], 16.4 µM (inactive). In addition, the GI50 in assay [8] is 31.6 µM (inactive).

For `CC(=O)/C(=C\c1ccccc1)C(=O)Nc1ccccc1`, the GI50 in assay [1], in assay [3], in assay [5], in [6], in assay [7] and in assay [8] was > 100 µM (inactive) each time. Further, the GI50 in [9] is > 100 µM (inactive).

As for `CCCC(C(=O)OC)C1N/C(=N/C#N)N(Cc2ccccc2)C1=O` (stereo not drawn), the GI50 in [1], in assay [2], in [4], in [5], in assay [6] and in assay [9] was > 100 µM (inactive) in each case.

For `Cc1c2ccncc2c(C)c2c1[nH]c1ccc(OCC(F)(F)F)cc12`, the GI50 in assay [1] is 1.84 µM (inactive); in [2], 0.82 µM (active); in assay [4], 1.47 µM (inactive); in assay [5], 1.2 µM (inactive); in assay [6] it was 1.84 µM (inactive); in assay [7], 1.57 µM (inactive). The GI50 in assay [8] was 2.92 µM (inactive); in assay [9] it was 1.61 µM (inactive).

For the molecule `COc1cc2cnc3c4cc(O)ccc4ccc3c2cc1OC`, the GI50 was 6.3 µM (inactive) in assay [1]; 34.8 µM (inactive) in assay [3]; > 100 µM (inactive) in assay [4]; 6.08 µM (inactive) in assay [5]; 24.7 µM (inactive) in assay [6].

With `COc1ccc2c(c1)[n+]([O-])c(-c1ccc(Cl)c(Cl)c1)c(N)[n+]2[O-]`, the GI50 is 16.3 µM (inactive) in [1]; 23.8 µM (inactive) in assay [2]; 24.3 µM (inactive) in assay [3]; 32.3 µM (inactive) in assay [4]; 35.6 µM (inactive) in [5]; 28.8 µM (inactive) in assay [6]. For the same molecule, the GI50 in assay [7] is 21.3 µM (inactive); in assay [8], 53.6 µM (inactive).
